Results on five compounds are retold here after ChEMBL document CHEMBL2176928, “Discovery of novel inhibitors of amyloid β-peptide 1-42 aggregation” (J Med Chem, 2012).

Data set [1] can be described thus: Elongation of aggregates of GFP-fused amyloid beta (1 to 42) expressed in Podospora anserina extract assessed as reduction of amyloid beta SDS-resistant oligomers after 1 hr by SDS-PAGE and Western blot analysis.
A short description of data set [2]: Inhibition of aggregation of GFP-fused amyloid beta (1 to 42) expressed in Podospora anserina assessed as reduction of amyloid beta SDS-resistant oligomers at 50 uM after 10 hrs to 5 days by SDS-PAGE and Western blot analysis. (A western blot detects proteins with antibodies after separation by electrophoresis.)
Data set [3] in a line: Inhibition of aggregation of GFP-fused amyloid beta (1 to 42) expressed in Podospora anserina assessed as reduction of amyloid beta SDS-resistant oligomers at 100 uM after 24 hrs by SDS-PAGE and Western blot analysis.
A short description of data set [4]: Toxicity in Podospora anserina expressing GFP-fused amyloid beta (1 to 42) assessed as effect on lifespan and growth rate of fungi at 100 uM.
The target in data set [5] is Amyloid-beta precursor protein (Homo sapiens) (UniProt P05067). Briefly: Inhibition of aggregation of human DHFR-fused amyloid beta (1 to 42) expressed in yeast harboring erg6delta assessed as increase in yeast viability measured up to 20 hrs in presence of MTX.
Data set [6] has the same target. Briefly: Inhibition of aggregation of human DHFR-fused amyloid beta (1 to 42) expressed in yeast harboring erg6delta assessed as increase in yeast viability at 10 uM measured up to 20 hrs in presence of MTX.
A short description of data set [7]: Cytotoxicity against human HeLa cells after 24 hrs by XTT assay. It counts as cell-based. On the technique in general: Tetrazolium dyes change colour on reduction, which living cells bring about.
Data set [8] can be described thus: Lipophilicity, log P of the compound. In kind it is physicochemical. Conditions: octanol/water.
The nature of data set [9]: Inhibition of aggregation of amyloid beta (17 to 40) assessed as fibril formation at 100 uM measured up to 24 hrs by transmission electron microscopic analysis.
Data set [10] in a line: Inhibition of aggregation of amyloid beta (17 to 40) assessed as fibril formation at 100 uM measured up to 10 hrs by turbidimetry assay.
Data set [11] in a line: Inhibition of aggregation of amyloid beta (17 to 40) assessed as fibril formation at 100 uM measured up to 13 hrs by high throughput thioflavin-T binding assay.
Data set [12] is described as follows: Inhibition of aggregation of GFP-fused amyloid beta (1 to 42) expressed in Podospora anserina assessed as reduction of amyloid beta SDS-resistant oligomers at 50 uM after 24 hrs by SDS-PAGE and Western blot analysis.
Data set [13] in a line: Toxicity in Podospora anserina expressing GFP-fused amyloid beta (1 to 42) assessed as effect on lifespan and growth rate of fungi at 50 uM.
Data set [14] deals with Saccharomyces cerevisiae. Briefly: Toxicity in yeast harboring erg6delta expressing human DHFR-fused amyloid beta (1 to 42) at 100 uM. It counts as organism-based. Particulars: in vivo.
Data set [15] relates to Saccharomyces cerevisiae. Description: Toxicity in yeast harboring erg6delta expressing human DHFR-fused amyloid beta (1 to 42) at 10 uM. In kind it is organism-based. Conditions: in vivo.

Activity calls are given as the source filed them. The calls are words filed in the database; no cut-off is given here.

Chain of Amyloid-beta precursor protein (Homo sapiens) (P05067 whole entry, the tested form may be a part): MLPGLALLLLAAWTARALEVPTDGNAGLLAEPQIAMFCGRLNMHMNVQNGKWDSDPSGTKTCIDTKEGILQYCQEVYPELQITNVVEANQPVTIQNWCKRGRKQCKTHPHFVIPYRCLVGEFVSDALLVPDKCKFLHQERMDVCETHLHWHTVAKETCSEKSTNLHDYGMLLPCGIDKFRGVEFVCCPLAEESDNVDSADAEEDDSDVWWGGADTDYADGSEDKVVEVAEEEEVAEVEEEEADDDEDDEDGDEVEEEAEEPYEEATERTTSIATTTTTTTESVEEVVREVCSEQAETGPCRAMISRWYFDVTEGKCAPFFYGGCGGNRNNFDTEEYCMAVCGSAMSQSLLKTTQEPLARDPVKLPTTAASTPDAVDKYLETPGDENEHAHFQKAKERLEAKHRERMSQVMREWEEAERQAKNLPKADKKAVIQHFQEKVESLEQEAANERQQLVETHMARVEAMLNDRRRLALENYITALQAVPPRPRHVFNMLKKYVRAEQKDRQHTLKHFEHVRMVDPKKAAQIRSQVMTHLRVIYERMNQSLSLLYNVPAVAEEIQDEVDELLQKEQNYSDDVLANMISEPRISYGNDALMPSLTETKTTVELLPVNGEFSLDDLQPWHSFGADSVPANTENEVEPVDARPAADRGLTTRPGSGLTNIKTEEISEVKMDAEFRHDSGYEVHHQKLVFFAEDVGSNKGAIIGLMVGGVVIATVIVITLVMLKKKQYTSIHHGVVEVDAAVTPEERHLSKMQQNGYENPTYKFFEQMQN

Usually logP stands for a log measure of how a compound divides between an organic and an aqueous phase. Higher therefore signals higher lipophilicity. On to `Cc1nc2sc3c(c2c(=O)o1)CCCC3`, for which, in data set [1], the result was inactive. Besides, the inhibition result in data set [2], in [6], in [9], in data set [10] and in data set [11] was “Active” throughout. In data set [3], the inhibition entry is “inactive”. The Activity entry in data set [4] is reported as “Toxic”. Besides, the inhibition result in data set [5] is “Dose-dependent effect”. In addition, the MCC at 24 h in data set [7] was 184 µM. In addition, the logP in data set [8] is 2.8.

With `Nc1c(S(=O)(=O)c2ccc(Cl)cc2)cnc2cc(-c3ccccc3)nn12`, in data set [1], the outcome was inactive. Besides, the inhibition result in data set [12] was “inactive”. Besides, the Activity result in [13] was “Non-toxic”; in data set [14] it was “Toxic”. In addition, in data set [7], the MCC at 24 h came to 22 µM. In addition, the logP in data set [8] was found to be 3.3. In addition, the inhibition result in data set [9], in data set [10] and in data set [11] was “Active” throughout.

As for `O=C(Nc1ccccc1)Nc1ccc(Cl)cc1[N+](=O)[O-]`, the outcome in [1] was inactive. Also, the inhibition result in [2], in [6], in data set [9], in data set [10] and in data set [11] was “Active” throughout. The inhibition result in data set [12] is “inactive”. For the same compound, the Activity result in data set [13] and in data set [14] was “Toxic” in each case. Moreover, in data set [7], the MCC at 24 h stood at 20 µM. For the same compound, in data set [8], the logP is 3.7.

On to `O=S(=O)(Nc1ccc(N2CCCCC2)cc1)c1cc(Cl)sc1Cl`, for which the outcome in [1] was inactive. For the same compound, the inhibition entry in data set [2], in data set [12], in data set [6], in [9], in data set [10] and in data set [11] was “Active” throughout. Also, in data set [13], the Activity result was “Non-toxic”. In addition, the inhibition entry in data set [5] was “Dose-dependent effect”. The compound further came in with an MCC at 24 h in data set [7] of 17 µM. For the same compound, in data set [8], the logP turned out to be 3.9.

Turning to `CCCCC(CC)CNC(=N)NC(=N)NCCCCCCNC(=N)NC(=N)NCC(CC)CCCC.Cl.Cl` (configuration not stated) [ALEXIDINE DIHYDROCHLORIDE], the Activity result in data set [15] is on record as “Toxic”. Further, the MCC at 24 h in data set [7] stood at 2 µM. Also, the inhibition result in [9], in data set [10] and in data set [11] was “Active” each time.
